Data: article PMC3522777 (Nature chemical biology, 2012)

Assays:
[1] = target: T1, dihydroceramide desaturase-1 (DES1) (Gallus gallus, UniProt Q5F3C1); format: biochemical
T1 sequence (Q5F3C1 1-323): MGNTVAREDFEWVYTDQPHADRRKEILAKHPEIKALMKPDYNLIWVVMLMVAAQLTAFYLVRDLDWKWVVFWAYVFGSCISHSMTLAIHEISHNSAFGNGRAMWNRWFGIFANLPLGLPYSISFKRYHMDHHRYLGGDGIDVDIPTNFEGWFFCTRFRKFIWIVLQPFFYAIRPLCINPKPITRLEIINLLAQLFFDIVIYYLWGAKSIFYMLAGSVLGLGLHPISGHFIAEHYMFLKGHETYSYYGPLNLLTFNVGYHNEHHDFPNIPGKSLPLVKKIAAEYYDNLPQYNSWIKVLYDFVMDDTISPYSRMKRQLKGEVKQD

[2] = target: DES1 (Homo sapiens, UniProt O15121); test: retinol isomerase assay in homogenates of transfected […] cells, HPLC; format: cell-based
Sequence of DES1 (O15121 2-323): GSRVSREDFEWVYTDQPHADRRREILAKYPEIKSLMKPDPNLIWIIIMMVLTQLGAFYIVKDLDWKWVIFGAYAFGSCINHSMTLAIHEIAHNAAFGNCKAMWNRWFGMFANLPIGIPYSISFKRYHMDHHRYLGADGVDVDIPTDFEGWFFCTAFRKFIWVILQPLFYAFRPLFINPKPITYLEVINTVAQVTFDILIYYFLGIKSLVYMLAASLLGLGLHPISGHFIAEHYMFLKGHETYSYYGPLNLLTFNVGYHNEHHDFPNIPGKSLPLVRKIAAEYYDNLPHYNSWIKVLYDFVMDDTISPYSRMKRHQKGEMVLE

[3] = target: T1, dihydroceramide desaturase-1 (DES1); test: retinol isomerase assay with purified GST-DES1, HPLC of products; format: biochemical

| SMILES | Ki [1] [µM] | retinol isomerase assay in homogenates of transfected 293T cells, HPLC [2] | retinol isomerase assay with purified GST-DES1, HPLC of products [3] |
| --- | --- | --- | --- |
| CC1=C(/C=C/C(C)=C/C=C/C(C)=C/C(=O)Nc2ccc(O)cc2)C(C)(C)CCC1 [4-HPR, fenretinide] | 8.5 |  |  |
| CC1=C(/C=C/C(C)=C/C=C/C(C)=C/CO)C(C)(C)CCC1 [all-trans-ROL, all-trans-retinol] |  | The rate of 11-cis-ROL synthesis was dramatically higher for DES1 versus the other membrane desaturases | Purified GST-DES1 exhibited dramatically higher isomerase-2 activities |
